Read-outs that look alike come from different tables or passages of the source.
Tests used:
[1] = target: T1, hNudt16E76Q (Homo sapiens, UniProt Q96DE0, E76Q); assay: Thermal stability of hNudt16E76Q with ligands, dye-free nanoDSF; assay type: binding; settings: for Tm, nanoDSF (Dye-Free) / ∆Tm, nanoDSF (Dye-Free): 5 µM hNudt16E76Q, 20 mM MgCl2, 0.5 mM ligand; for ∆Tm, nanoDSF (Dye-Free): relative to apo
T1 construct: 4xHis (four added histidines); made in house; host or cells: E. coli Rosetta 2 (DE3), pET16b
Protocol: (§1) Protein thermal stability in the presence of various ligands was measured using two DSF methods: assays with SYPRO orange dye and dye-free assays. DSF assays with SYPRO orange dye were performed at specific ligand concentrations for each protein–ligand pair. This measurement was performed as described in Section 4.6.1, with a constant MgCl2 concentration of 20 mM and a concentration of the tested ligand maintained at 0.5 mM. DSF dye-free measurements were performed using a Prometheus NT.48 nanoDSF device (NanoTemper Technologies, München, Germany). The composition of the samples was identical to that in the DSF with SYPRO orange dye measurements, without the addition of any dye. […] The measurements were performed at a single ligand concentration for all ligands. After 10 min of pre-incubation, the samples were loaded into standard capillaries (NanoTemper Technologies, München, Germany). […] We fitted the melting temperatures (Tm) globally for at least three independent experiments (but separately for different DSF methods).

[2] = target: T1, hNudt16E76Q; assay: Thermal stability of hNudt16E76Q with ligands, DSF with SYPRO Orange; assay type: binding; settings: 5 µM hNudt16E76Q, 20 mM MgCl2, 0.5 mM ligand, 4× SYPRO Orange; for ∆Tm, DSF (with SYPRO Orange): relative to apo
Protocol: The protein thermal stability of wild-type hNudt16 and all tested mutants in the presence of increasing Mg^2+ ion concentration was measured using DSF with SYPRO orange dye on CFX RT-PCR (Bio-Rad, Hercules, CA, USA). This method is based on the change in fluorescence of the SYPRO orange dye in an aqueous buffer, which is strongly quenched, while its binding to the exposed hydrophobic regions of thermally unfolded protein results in an increased fluorescence. The optimal concentrations of protein, SYPRO orange dye, and buffer composition, in particular ion content, were determined. The samples were prepared and measured in clear 96-well multiplate PCR plates for RT-PCR (Bio-Rad, Hercules, CA, USA). […] The individual components of the solution were added in equal volumes to each well, with a final sample volume of 25 μL/well. The samples were gently mixed, and the 96-well plate was covered with optically clear PCR sealing tape (Bio-Rad, Hercules, CA, USA) to prevent evaporation. […] The data processing procedure was performed using Bio-Rad CFX Manager (version 1.6.541.1028), and melting point temperatures were calculated as the minimum of the first derivative plot.
as §1

[3] = target: hNudt16 (Homo sapiens, UniProt Q96DE0); assay: Enzymatic hydrolysis catalyzed by hNudt16, products quantified by HPLC; assay type: biochemical; set-up: 4xHis (four added histidines); made in house; settings: 20 µM substrate, 37 °C; for Hydrolysis Products / Hydrolysis Rate, v/[E]0 (hydrolyzed substrate per minute per [enzyme] µM) / Hydrolysis Rate, v/µg (hydrolyzed substrate per minute per enzyme µg): pH 7.9, 6 mM MgCl2, nd = hydrolysis products not detected; for Susceptibility to hydrolysis by hNudt16 (in words): HPLC
Protocol: Enzymatic hydrolysis catalyzed by hNudt16 was performed at 37 °C in 40 mM Tris buffer (pH 7.9) containing 100 mM NaCl, 6 mM MgCl2, and 2 mM DTT. The concentration of the investigated dinucleotides and mononucleotides was 20 µM in the reaction mixture.
The hydrolytic susceptibility of the compounds was studied using HPLC. Before each experiment, 1 mL of buffer solution containing the analyte was incubated at 37 °C for 10 min. The hydrolysis process was initiated by the addition of hNudt16. To analyze the reaction progress, 200-µL aliquots of the reaction mixture were withdrawn and incubated at 96 °C for 5 min to stop the reaction through heat inactivation of the enzyme. The samples were then subjected to an HPLC system (Agilent 1200 series, Agilent Technologies, California, USA) with a reverse-phase Supelcosil LC-18-T column and UV/VIS detector. The substrates and hydrolysis products were eluted at 20 °C with a linear gradient of methanol in 0.1 M KH2PO4 (from 0% to 40%) over 15 min at a flow rate of 1.0 mL/min. Changes in the absorbance at 260 nm were continuously monitored during the analysis. Hydrolysis products were identified by comparing their retention times with those of the reference samples. The extent of decapping, determined as the percentage of the hydrolyzed substrate, was calculated using the area under the chromatographic peak of the respective compounds.

[4] = target: T1, hNudt16E76Q; assay: Microscale thermophoresis (MST) binding, two independent binding sites model; settings: for ΔGdiss1 (for Kd1): calculated as −RTlnKd from MST Kd1; for ΔGdiss2 (for Kd2): calculated as −RTlnKd from MST Kd2
Protocol: Binding constants for protein–ligand pairs were established using the MST method. The hNudt16 E76Q was labeled with RED-tris-NTA 2nd Generation dye (Monolith HIS-tag labeling Kit, NanoTemper Technologies, München, Germany) according to the manufacturer’s instructions. Measurements were carried out in a wide range of ligand concentrations, selected after preliminary tests for each of the ligands. The results obtained were used to determine of binding parameters for a given ligand. Each MST measurement consisted of a series of 16 serial 1:2 dilutions of the ligand, and was performed at a constant dye-labeled protein concentration of 50 nM. After 10 min of pre-incubation, dye-labeled protein–ligand samples were manually loaded into Monolith™ NT.115 Premium Capillaries (NanoTemper Technologies, München, Germany) and analyzed using the Monolith NT.115 (NanoTemper Technologies). […] Analysis was performed using Origin package (OriginLab, Northampton, MA, USA) and dissociation constants were fitted globally for a series of at least six MST pseudo-titration experiments for each ligand. Up to 10 replicates were performed for some ligands.
For the dissociation constants obtained, we also calculated the free energy associated with the dissociation of the complex ΔGdiss according to the equation: ΔGdiss=−RTlnKd.

[5] = second, weaker binding site, read-out: Kd2
[6] = stronger binding site, 50 nM dye-labeled protein, read-out: Kd1

T1 sequence (Q96DE0 whole entry E76Q): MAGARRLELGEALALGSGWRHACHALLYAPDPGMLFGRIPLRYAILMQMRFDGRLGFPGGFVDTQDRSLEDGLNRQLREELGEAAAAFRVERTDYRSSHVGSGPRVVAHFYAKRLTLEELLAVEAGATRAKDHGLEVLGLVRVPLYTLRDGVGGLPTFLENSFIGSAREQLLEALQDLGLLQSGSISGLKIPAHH
hNudt16, sequence (Q96DE0 whole entry): as the sequence (Q96DE0 whole entry E76Q) above, with Q76E counted along it

## NC(=O)C1=CN([C@@H]2O[C@H](COP(=O)(O)OP(=O)(O)OC[C@H]3O[C@@H](n4cnc5c(N)ncnc54)[C@H](O)[C@@H]3O)[C@@H](O)[C@H]2O)C=CC1 [NADH, Reduced NAD+]
[1]
  Tm, nanoDSF (Dye-Free): 67.4 ± 0.1 °C
  ∆Tm, nanoDSF (Dye-Free): 2.4 ± 0.1 °C
[2]
  Tm, DSF (with SYPRO Orange): 64.9 ± 0.1 °C
  ∆Tm, DSF (with SYPRO Orange): 1.1 ± 0.1 °C
[3]
  Hydrolysis Products: AMP + NMNH
  Hydrolysis Rate, v/[E]0 (hydrolyzed substrate per minute per [enzyme] µM): 18.7 ± 1.5 µM/min/[E]0
  Hydrolysis Rate, v/µg (hydrolyzed substrate per minute per enzyme µg): 0.78 ± 0.06 µM/min/µg

## C[n+]1cn([C@@H]2O[C@H](COP(=O)(O)OP(=O)(O)O)[C@@H](O)[C@H]2O)c2nc(N)[nH]c(=O)c21 [m^7GDP, 7-methylguanosine diphosphate]
[1]
  Tm, nanoDSF (Dye-Free): 66.7 ± 0.1 °C
  ∆Tm, nanoDSF (Dye-Free): 1.6 ± 0.1 °C
[2]
  Tm, DSF (with SYPRO Orange): 64.4 ± 0.1 °C
  ∆Tm, DSF (with SYPRO Orange): 0.7 ± 0.1 °C
[3]
  Susceptibility to hydrolysis by hNudt16 (in words): resistant to hydrolytic cleavage

## Nc1nc2c(ncn2[C@@H]2O[C@H](COP(=O)(O)OP(=O)(O)O)[C@@H](O)[C@H]2O)c(=O)[nH]1 [GDP, Guanosine diphosphate]
[4]
  ΔGdiss1 (for Kd1): 8.97 kcal/mol
  ΔGdiss2 (for Kd2): 5.911 kcal/mol
[4]; [5]
  Kd: 45.6 ± 2.4 µM
[4]; [6]
  Kd: 0.258 ± 0.045 µM
[1]
  Tm, nanoDSF (Dye-Free): 78.6 ± 0.1 °C
  ∆Tm, nanoDSF (Dye-Free): 13.5 ± 0.1 °C
[2]
  Tm, DSF (with SYPRO Orange): 77.0 ± 0.1 °C
  ∆Tm, DSF (with SYPRO Orange): 13.3 ± 0.1 °C

## CC(C)(COP(=O)(O)OP(=O)(O)OC[C@H]1O[C@@H](n2cnc3c(N)ncnc32)[C@H](O)[C@@H]1O)[C@@H](O)C(=O)NCCC(=O)NCCS [dpCoA, Dephospho-coenzyme A]
[4]
  ΔGdiss1 (for Kd1): 5.951 kcal/mol
  ΔGdiss2 (for Kd2): ≤2.481 kcal/mol
[4]; [5]
  Kd: ≥ 15000 µM
[4]; [6]
  Kd: 43 µM
[1]
  Tm, nanoDSF (Dye-Free): 68.1 ± 0.1 °C
  ∆Tm, nanoDSF (Dye-Free): 3.1 ± 0.1 °C
[2]
  Tm, DSF (with SYPRO Orange): 67.0 ± 0.1 °C
  ∆Tm, DSF (with SYPRO Orange): 3.3 ± 0.1 °C
[3]
  Hydrolysis Products: AMP + dpCop
  Hydrolysis Rate, v/[E]0 (hydrolyzed substrate per minute per [enzyme] µM): 18.0 ± 1.3 µM/min/[E]0
  Hydrolysis Rate, v/µg (hydrolyzed substrate per minute per enzyme µg): 0.75 ± 0.05 µM/min/µg

## Nc1ncnc2c1ncn2[C@@H]1O[C@H](COP(=O)(O)OP(=O)(O)OC[C@H]2O[C@@H](n3cnc4c(N)ncnc43)[C@H](O)[C@@H]2O)[C@@H](O)[C@H]1O [AppA]
[4]
  ΔGdiss1 (for Kd1): 4.192 kcal/mol
[4]; [6]
  Kd: 833 µM
[1]
  Tm, nanoDSF (Dye-Free): 66.8 ± 0.1 °C
  ∆Tm, nanoDSF (Dye-Free): 1.7 ± 0.1 °C
[2]
  Tm, DSF (with SYPRO Orange): 65.2 ± 0.1 °C
  ∆Tm, DSF (with SYPRO Orange): 1.5 ± 0.1 °C
[3]
  Hydrolysis Products: AMP
  Hydrolysis Rate, v/[E]0 (hydrolyzed substrate per minute per [enzyme] µM): 40.8 ± 2.9 µM/min/[E]0
  Hydrolysis Rate, v/µg (hydrolyzed substrate per minute per enzyme µg): 1.70 ± 0.12 µM/min/µg

## O=c1[nH]cnc2c1ncn2[C@@H]1O[C@H](COP(=O)(O)OP(=O)(O)O)[C@@H](O)[C@H]1O [IDP, Inosine diphosphate]
[4]
  ΔGdiss1 (for Kd1): 10.04 kcal/mol
  ΔGdiss2 (for Kd2): 8.078 kcal/mol
[4]; [5]
  Kd: 1.2 ± 0.2 µM
[1]
  Tm, nanoDSF (Dye-Free): 82.9 ± 0.1 °C
  ∆Tm, nanoDSF (Dye-Free): 17.8 ± 0.1 °C
[1]; 0.5 mM ligand, stated for both types of measurements
  ΔTm relative to the apo form, both DSF and nanoDSF: 17.5–18.0 °C
[2]
  Tm, DSF (with SYPRO Orange): 81.5 ± 0.1 °C
  ∆Tm, DSF (with SYPRO Orange): 17.8 ± 0.1 °C
[3]
  Susceptibility to hydrolysis by hNudt16 (in words): very rapid hydrolysis reaction

## Nc1nc2c(ncn2[C@@H]2O[C@H](COP(=O)(O)OP(=O)(O)OP(=O)(O)OC[C@H]3O[C@@H](n4cnc5c(=O)[nH]c(N)nc54)[C@H](O)[C@@H]3O)[C@@H](O)[C@H]2O)c(=O)[nH]1 [GpppG]
[1]
  Tm, nanoDSF (Dye-Free): 76.0 ± 0.1 °C
  ∆Tm, nanoDSF (Dye-Free): 10.9 ± 0.1 °C
[2]
  Tm, DSF (with SYPRO Orange): 74.8 ± 0.1 °C
  ∆Tm, DSF (with SYPRO Orange): 11.0 ± 0.1 °C

## Cn1c[n+]([C@@H]2O[C@H](COP(=O)(O)OP(=O)([O-])OP(=O)(O)OC[C@H]3O[C@@H](n4cnc5c(=O)[nH]c(N)nc54)[C@H](O)[C@@H]3O)[C@@H](O)[C@H]2O)c2nc(N)[nH]c(=O)c21 [m^7GpppG]
[4]
  ΔGdiss1 (for Kd1): 8.026 kcal/mol
[4]; [5]
  Kd: 230 ± 57 µM
[4]; [6]
  Kd: 1.7 µM
[1]
  Tm, nanoDSF (Dye-Free): 73.5 ± 0.1 °C
  ∆Tm, nanoDSF (Dye-Free): 8.4 ± 0.1 °C
[2]
  Tm, DSF (with SYPRO Orange): 72.3 ± 0.1 °C
  ∆Tm, DSF (with SYPRO Orange): 8.5 ± 0.1 °C

## NC(=O)c1ccc[n+]([C@@H]2O[C@H](COP(=O)([O-])OP(=O)(O)OC[C@H]3O[C@@H](n4cnc5c(N)ncnc54)[C@H](O)[C@@H]3O)[C@@H](O)[C@H]2O)c1 [NAD, Nicotinamide adenine dinucleotide]
[1]
  Tm, nanoDSF (Dye-Free): 66.1 ± 0.1 °C
  ∆Tm, nanoDSF (Dye-Free): 1.1 ± 0.1 °C
[2]
  Tm, DSF (with SYPRO Orange): 63.7 ± 0.1 °C
  ∆Tm, DSF (with SYPRO Orange): 0.0 ± 0.1 °C
[3]
  Hydrolysis Products: NMN + AMP
  Hydrolysis Rate, v/[E]0 (hydrolyzed substrate per minute per [enzyme] µM): 3.4 ± 0.4 µM/min/[E]0
  Hydrolysis Rate, v/µg (hydrolyzed substrate per minute per enzyme µg): 0.14 ± 0.02 µM/min/µg

## Nc1ccn([C@@H]2O[C@H](COP(=O)(O)OP(=O)(O)O)[C@@H](O)[C@H]2O)c(=O)n1 [CDP, Cytidine diphosphate]
[1]
  Tm, nanoDSF (Dye-Free): 66.8 ± 0.1 °C
  ∆Tm, nanoDSF (Dye-Free): 1.66 ± 0.1 °C
[2]
  Tm, DSF (with SYPRO Orange): 65.6 ± 0.1 °C
  ∆Tm, DSF (with SYPRO Orange): 1.81 ± 0.1 °C

Reference: paper PMC8535469, “Insight into the Binding and Hydrolytic Preferences of hNudt16 Based on Nucleotide Diphosphate Substrates” (International Journal of Molecular Sciences, 2021)
